Source: ChEMBL document CHEMBL1201862, “PubChem BioAssay data set” (2004)
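Five concentrations, 48 hours, 96-well plates. GI50: concentration for 50% inhibition of growth.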 Active and inactive are the calls of the source. Rule as the data show it: active = GI50 up to about 1.1 µM and inactive = higher.

Tests used:
Assay in all cases: inhibition of tumour cell growth, NCI panel, 48 h
786-0 = tested on: 786-0
A498 = tested on: A498
A549 = tested on: A549
ACHN = tested on: ACHN
BT-549 = tested on: BT-549
CAKI-1 = tested on: CAKI-1
CCRF-CEM = tested on: CCRF-CEM
COLO 205 = tested on: COLO 205
DU-145 = tested on: DU-145
EKVX = tested on: EKVX
HCC 2998 = tested on: HCC 2998
HCT-116 = tested on: HCT-116
HCT-15 = tested on: HCT-15
HL-60 = tested on: HL-60
HOP-62 = tested on: HOP-62
HOP-92 = tested on: HOP-92
HT-29 = tested on: HT-29
Hs-578T = tested on: Hs-578T
IGROV-1 = tested on: IGROV-1
K562 = tested on: K562
KM12 = tested on: KM12
LOX IMVI = tested on: LOX IMVI
M14 = tested on: M14
MCF7 = tested on: MCF7
MDA-MB-231 = tested on: MDA-MB-231
MDA-MB-435 = tested on: MDA-MB-435
MDA-N = tested on: MDA-N
MOLT-4 = tested on: MOLT-4
Malme-3M = tested on: Malme-3M
NCI-H226 = tested on: NCI-H226
NCI-H23 = tested on: NCI-H23
NCI-H460 = tested on: NCI-H460
NCI-H522 = tested on: NCI-H522
NCI/ADR-RES = tested on: NCI/ADR-RES
OVCAR-3 = tested on: OVCAR-3
OVCAR-4 = tested on: OVCAR-4
OVCAR-5 = tested on: OVCAR-5
OVCAR-8 = tested on: OVCAR-8
PC-3 = tested on: PC-3
RPMI-8226 = tested on: RPMI-8226
RXF 393 = tested on: RXF 393
SF-268 = tested on: SF-268
SF-295 = tested on: SF-295
SF-539 = tested on: SF-539
SK-MEL-28 = tested on: SK-MEL-28
SK-MEL-2 = tested on: SK-MEL-2
SK-MEL-5 = tested on: SK-MEL-5
SK-OV-3 = tested on: SK-OV-3
SN12C = tested on: SN12C
SNB-19 = tested on: SNB-19
SNB-75 = tested on: SNB-75
SR = tested on: SR
SW-620 = tested on: SW-620
T47D = tested on: T47D
TK-10 = tested on: TK-10
U-251 = tested on: U-251
UACC-257 = tested on: UACC-257
UACC-62 = tested on: UACC-62
UO-31 = tested on: UO-31

For `O=C(Cc1ccc(Cl)c(Cl)c1)N(CCc1ccc(Cl)c(Cl)c1)CCN1CCCC1`, the GI50 (786-0) was 1.61 µM (inactive), the GI50 (A498) was 1.85 µM (inactive) and the GI50 (A549) was 2.01 µM (inactive). For the same compound, the GI50 (ACHN) was 1.71 µM (inactive), the GI50 (BT-549) was 2.63 µM (inactive) and the GI50 (CAKI-1) was 1.67 µM (inactive). For the same compound, the GI50 (CCRF-CEM) was 1.31 µM (inactive), the GI50 (COLO 205) was 1.68 µM (inactive) and the GI50 (DU-145) was 2.14 µM (inactive). For the same compound, the GI50 (EKVX) was 1.92 µM (inactive), the GI50 (HCC 2998) was 1.81 µM (inactive) and the GI50 (HCT-116) was 1.66 µM (inactive). For the same compound, the GI50 (HCT-15) was 1.96 µM, the GI50 (HL-60) was 1.42 µM (inactive) and the GI50 (HOP-62) was 1.79 µM (inactive). The GI50 (HOP-92) was 1.88 µM (inactive), the GI50 (HT-29) was 1.86 µM (inactive) and the GI50 (Hs-578T) was 2.98 µM (inactive). The GI50 (IGROV-1) was 1.74 µM (inactive), the GI50 (K562) was 1.87 µM (inactive) and the GI50 (KM12) was 1.79 µM (inactive). For the same compound, the GI50 (LOX IMVI) was 1.73 µM (inactive), the GI50 (M14) was 1.77 µM (inactive) and the GI50 (MCF7) was 1.73 µM (inactive). The GI50 (MDA-MB-231) was 1.76 µM (inactive), the GI50 (MDA-MB-435) was 1.77 µM (inactive) and the GI50 (MDA-N) was 1.67 µM (inactive). The GI50 (MOLT-4) was 1.34 µM (inactive), the GI50 (Malme-3M) was 1.73 µM (inactive) and the GI50 (NCI-H226) was 2.01 µM (inactive). The GI50 (NCI-H23) was 1.95 µM (inactive), the GI50 (NCI-H460) was 1.85 µM (inactive) and the GI50 (NCI-H522) was 1.77 µM (inactive). The GI50 (NCI/ADR-RES) was 2.04 µM (inactive), the GI50 (OVCAR-3) was 2.26 µM (inactive) and the GI50 (OVCAR-4) was 2.19 µM (inactive). For the same compound, the GI50 (OVCAR-5) was 1.8 µM (inactive), the GI50 (OVCAR-8) was 1.93 µM (inactive) and the GI50 (PC-3) was 1.83 µM (inactive). For the same compound, the GI50 (RPMI-8226) was 1.71 µM (inactive), the GI50 (RXF 393) was 1.71 µM (inactive) and the GI50 (SF-268) was 2.15 µM (inactive). The GI50 (SF-295) was 1.96 µM (inactive), the GI50 (SF-539) was 1.75 µM (inactive) and the GI50 (SK-MEL-28) was 1.43 µM (inactive). For the same compound, the GI50 (SK-MEL-2) was 1.8 µM (inactive), the GI50 (SK-MEL-5) was 1.78 µM (inactive) and the GI50 (SK-OV-3) was 2.69 µM (inactive). For the same compound, the GI50 (SN12C) was 1.73 µM (inactive), the GI50 (SNB-19) was 2.15 µM (inactive) and the GI50 (SNB-75) was 2.05 µM (inactive). For the same compound, the GI50 (SR) was 1.39 µM (inactive), the GI50 (SW-620) was 1.53 µM (inactive) and the GI50 (T47D) was 4.06 µM (inactive). For the same compound, the GI50 (TK-10) was 1.81 µM (inactive), the GI50 (U-251) was 1.71 µM (inactive) and the GI50 (UACC-257) was 1.91 µM (inactive). The GI50 (UACC-62) was 1.78 µM (inactive) and the GI50 (UO-31) was 1.85 µM (inactive).
In the case of `c1sc(NC2=NCCO2)c2c1CCCC2`, the GI50 (786-0) is reported as > 100 µM (inactive), the GI50 (A498) is reported as > 100 µM (inactive) and the GI50 (A549) is reported as > 100 µM (inactive). For the same compound, the GI50 (ACHN) was > 100 µM (inactive), the GI50 (BT-549) was > 100 µM (inactive) and the GI50 (CAKI-1) was > 100 µM (inactive). For the same compound, the GI50 (CCRF-CEM) was > 100 µM (inactive), the GI50 (COLO 205) was > 100 µM (inactive) and the GI50 (DU-145) was > 100 µM (inactive). The GI50 (EKVX) was > 100 µM (inactive), the GI50 (HCC 2998) was > 100 µM (inactive) and the GI50 (HCT-116) was > 100 µM (inactive). For the same compound, the GI50 (HCT-15) was > 100 µM, the GI50 (HL-60) was > 100 µM (inactive) and the GI50 (HOP-92) was > 100 µM (inactive). For the same compound, the GI50 (HT-29) was > 100 µM (inactive), the GI50 (Hs-578T) was > 100 µM (inactive) and the GI50 (IGROV-1) was > 100 µM (inactive). For the same compound, the GI50 (K562) was > 100 µM (inactive), the GI50 (KM12) was > 100 µM (inactive) and the GI50 (LOX IMVI) was > 100 µM (inactive). For the same compound, the GI50 (M14) was > 100 µM (inactive), the GI50 (MCF7) was > 100 µM (inactive) and the GI50 (MDA-MB-231) was > 100 µM (inactive). The GI50 (MDA-MB-435) was > 100 µM (inactive), the GI50 (MDA-N) was > 100 µM (inactive) and the GI50 (MOLT-4) was 85.5 µM (inactive). The GI50 (Malme-3M) was > 100 µM (inactive), the GI50 (NCI-H226) was > 100 µM (inactive) and the GI50 (NCI-H23) was > 100 µM (inactive). The GI50 (NCI-H460) was > 100 µM (inactive), the GI50 (NCI-H522) was > 100 µM (inactive) and the GI50 (NCI/ADR-RES) was > 100 µM (inactive). For the same compound, the GI50 (OVCAR-3) was > 100 µM (inactive), the GI50 (OVCAR-4) was > 100 µM (inactive) and the GI50 (OVCAR-5) was > 100 µM (inactive). For the same compound, the GI50 (OVCAR-8) was > 100 µM (inactive), the GI50 (PC-3) was 99.8 µM (inactive) and the GI50 (RPMI-8226) was > 100 µM (inactive). The GI50 (RXF 393) was > 100 µM (inactive), the GI50 (SF-295) was > 100 µM (inactive) and the GI50 (SF-539) was > 100 µM (inactive). The GI50 (SK-MEL-28) was > 100 µM (inactive), the GI50 (SK-MEL-2) was > 100 µM (inactive) and the GI50 (SK-MEL-5) was > 100 µM (inactive). The GI50 (SK-OV-3) was > 100 µM (inactive), the GI50 (SNB-19) was > 100 µM (inactive) and the GI50 (SNB-75) was > 100 µM (inactive). For the same compound, the GI50 (SR) was > 100 µM (inactive), the GI50 (SW-620) was > 100 µM (inactive) and the GI50 (T47D) was 88.1 µM (inactive). The GI50 (TK-10) was > 100 µM (inactive), the GI50 (U-251) was > 100 µM (inactive) and the GI50 (UACC-257) was > 100 µM (inactive). The GI50 (UACC-62) was > 100 µM (inactive) and the GI50 (UO-31) was > 100 µM (inactive).
In the case of `CC1(C)C(=O)c2ccccc2OC1N1CCN(C2Oc3ccccc3C(=O)C2(C)C)CC1` (configuration not stated), the GI50 (A498) is reported as 24.5 µM (inactive), the GI50 (ACHN) is reported as > 100 µM (inactive) and the GI50 (BT-549) is reported as > 100 µM (inactive). The GI50 (CAKI-1) was > 100 µM (inactive), the GI50 (CCRF-CEM) was > 100 µM (inactive) and the GI50 (COLO 205) was > 100 µM (inactive). The GI50 (DU-145) was > 100 µM (inactive), the GI50 (EKVX) was > 100 µM (inactive) and the GI50 (HCC 2998) was > 100 µM (inactive). For the same compound, the GI50 (HCT-116) was 82.4 µM (inactive), the GI50 (HCT-15) was > 100 µM and the GI50 (HL-60) was > 100 µM (inactive). The GI50 (HOP-62) was > 100 µM (inactive), the GI50 (HOP-92) was > 100 µM (inactive) and the GI50 (HT-29) was > 100 µM (inactive). For the same compound, the GI50 (Hs-578T) was 61.1 µM (inactive), the GI50 (IGROV-1) was > 100 µM (inactive) and the GI50 (K562) was > 100 µM (inactive). The GI50 (KM12) was > 100 µM (inactive), the GI50 (LOX IMVI) was > 100 µM (inactive) and the GI50 (M14) was > 100 µM (inactive). For the same compound, the GI50 (MCF7) was > 100 µM (inactive), the GI50 (MDA-MB-231) was 94.6 µM (inactive) and the GI50 (MDA-MB-435) was > 100 µM (inactive). The GI50 (MDA-N) was > 100 µM (inactive), the GI50 (MOLT-4) was > 100 µM (inactive) and the GI50 (Malme-3M) was 30.3 µM (inactive). For the same compound, the GI50 (NCI-H226) was > 100 µM (inactive), the GI50 (NCI-H23) was > 100 µM (inactive) and the GI50 (NCI-H460) was > 100 µM (inactive). For the same compound, the GI50 (NCI-H522) was > 100 µM (inactive), the GI50 (NCI/ADR-RES) was > 100 µM (inactive) and the GI50 (OVCAR-3) was > 100 µM (inactive). The GI50 (OVCAR-4) was > 100 µM (inactive), the GI50 (OVCAR-5) was > 100 µM (inactive) and the GI50 (PC-3) was > 100 µM (inactive). For the same compound, the GI50 (RPMI-8226) was > 100 µM (inactive), the GI50 (RXF 393) was 48.1 µM (inactive) and the GI50 (SF-268) was > 100 µM (inactive). For the same compound, the GI50 (SK-MEL-28) was > 100 µM (inactive), the GI50 (SK-MEL-5) was > 100 µM (inactive) and the GI50 (SK-OV-3) was > 100 µM (inactive). For the same compound, the GI50 (SN12C) was > 100 µM (inactive), the GI50 (SNB-19) was > 100 µM (inactive) and the GI50 (SNB-75) was 28 µM (inactive). The GI50 (SR) was > 100 µM (inactive), the GI50 (SW-620) was > 100 µM (inactive) and the GI50 (T47D) was 83.4 µM (inactive). For the same compound, the GI50 (TK-10) was > 100 µM (inactive), the GI50 (U-251) was > 100 µM (inactive) and the GI50 (UACC-62) was 82.6 µM (inactive). For the same compound, the GI50 (UO-31) was > 100 µM (inactive).
